The text below walks through data of patent publication US9549886B2, “Personal care formulations containing alkyl ketal esters and methods of manufacture” (SEGETIS, INC., priority 2010, dated 2017).

Data set [1] can be described thus: Clarity of model hand sanitizer (isopropyl myristate / water / ethanol / ethyl-LGK). The class given is physicochemical. The text has this:
Thus, a formulation with 30 parts isopropyl myristate, 10 parts water, and 60 parts ethanol was cloudy. […] In either case, the potential for dryness increases due to reduction in emollient or increase in ethanol. […] This formulation retained the balance of emollient and ethanol, while still providing hydration through the presence of water. Alternatively, a portion of the ethanol can be replaced with Et-LGK without sacrificing clarity, even at higher water levels. […] This reduced ethanol formulation was less drying.

Data set [2] can be described thus: Solubility of active agents in neat alkyl ketal esters (dissolution, storage at room temperature).
Data set [3] in a line: Solubility of oxidation dye intermediates in hair dye bases (saturated solutions, UV-Vis). Particulars: 27° C., 10 minutes.

SMILES strings stand for the structures. Several values for one entry are separate records, joined by “and”; a condition that tells them apart may be missing. Identical values can stand only once.

Take `CCCCCCCCCCCCCC(=O)OC(C)C` [isopropyl myristate]: the clarity of formulation entry is given as “clear solution” in data set [1] (27 parts isopropyl myristate, 9 parts of water, 9 parts of ethyl-LGK and 55 parts of ethanol); “clear solution” in data set [1] (30 parts isopropyl myristate, 5 parts water, 5 parts ethyl-LGK and 60 parts ethanol); “cloudy” in data set [1] (30 parts isopropyl myristate, 10 parts water, 60 parts ethanol); “clear solution” in data set [1] (no ketal, emollient level dropped to 22% at the same water level, or to 27% with an increase in ethanol).
Regarding `Nc1ccc(N)cc1` [p-phenylenediamine], the “% solids dissolved in Bu-LGK with heat, no precipitation” value in data set [2] (solvent Bu-LGK, dissolved at 50-80° C., still soluble after 24 hours at room temperature where stated) was determined as 5%. In addition, the “% solids in Bu-LGK that did not (completely) dissolve” value in data set [2] (solvent Bu-LGK, insoluble, dispersion or partially dissolved) was determined as 25%. Besides, the “% solids dissolved in Et-LGK with heat, no precipitation” value in data set [2] (solvent Et-LGK, dissolved at 35-80° C., still soluble after storage at room temperature (24 hours to 5 days) where stated) is on record as 5%. Besides, the “% solids in Et-LPK that did not (completely) dissolve or precipitated at room temperature” value in data set [2] (solvent Et-LPK, insoluble, not completely dissolved or precipitated on room temperature storage) was 5% and 1%. Moreover, the “Average Solubility % wt./wt., column 26B” value in data set [3] (hair dye base with 7.00% Et-LGK, pH 8.5) is reported as 0.07 % wt./wt. Also, the “Average Solubility % wt./wt., column 26A” value in data set [3] (hair dye base with 7.00% Et-LGK, pH 10.2) stood at 0.07 % wt./wt. Besides, the “Average Solubility % wt./wt., column 27B” value in data set [3] (hair dye base with 7.00% Et-LPK, pH 8.5) is given as under 0.01 % wt./wt. The “Average Solubility % wt./wt., second column headed 26A” value in data set [3] (hair dye base with 7.00% Et-LPK, pH 10.2) came to 0 % wt./wt.
